Tests used:
[1] = system: herpes simplex virus type 1; assay: Treatment of an individual with frequent and severe cold sores: DNCB solution applied at the site of the HSV lesion on the lower lip; type: in vivo, human
Source text: The individual treated was one of the inventors. They are a person and was […] at the time of this treatment. The subject suffered from frequent cold sores on the lower lip. The outbreaks typically lasted 7-10 days and frequently longer. The subject had suffered from frequent cold sores most of their life. During the 6 months prior to this treatment, the outbreaks had been almost continuous. After getting over one outbreak, the next outbreak would begin often within a week.
In the morning they washed it off. A mild erythema in the area of the cold sore developed over 2-3 days and lasted a further 5 days, and the cold sore resolved in about 7 days, which was a typical duration for this individual or a slightly shorter duration than normal. […] Each outbreak would begin and completely resolve in one day. […] We think this may be because the immune system was recognizing not just the DNCB but also the herpes virus antigens with this second application. With the greater inflammation, the cold sore outbreak was worse than any of the outbreaks between the first and second DNCB treatments. […] The outbreak seemed to worsen as the inflammation associated with the DTH response worsened, and only lessened when the DTH response subsided.
When the outbreak subsided, the subject went another 6 months without any outbreaks to the present time.
For several months before and for the entire time described herein after the initial DNCB treatment, the subject took no antiviral medicines.

[2] = Presensitization and dose finding: DNCB solution in acetone applied to spots on the forearm, DTH rash/erythema observed; type: in vivo, human; details: for erythema on forearm: sensitized subject
Source text: The subject then applied a 0.1%, 0.2%, and 0.3% solutions to separate small spots on the forearm.

[3] = system: peripheral blood mononuclear cells; assay: PBMC proliferation assay with stimulation by heat inactivated KOS HSV-1 particles; type: cell-based, human; details: after treatment compared with before treatment; killed KOS HSV-1 particles
Source text: At visit 1, before applying SADBE, a blood sample is collected from each patient for use in a peripheral blood mononuclear cell (PBMC) proliferation assay to test immune response to herpes virus.
Two months after visit 2 (the first treatment application of SADBE to an HSV lesion) if the patient has not experienced a recurrence outbreak after visit 2, or one month after visit 3 (the treatment application of SADBE to a lesion of a second outbreak), a blood sample is collected from the patient. The first, pretreatment, blood sample and the second, posttreatment, blood sample are used to conduct PBMC proliferation assays to test immune response to herpes virus before and after treatment.
Venous blood is collected in heparinized test tubes for mononuclear cell isolation prior to treatment and after treatment at the times described above. […]
KOS HSV-1 virus (American Type Culture Collection) is grown in culture in VERO cells and collected. […] The titer of the virus stock is determined. […]
Results are calculated by averaging optical density of the wells in each of the groups. A stimulation index is calculated to reflect the proliferation in the wells stimulated by killed HSV as compared to the positive and negative controls. The average optical absorbance of the positive controls is set as a stimulation index (SI) value of 100 and the average absorbance of the negative controls as a SI value of 0.

[4] = system: herpes labialis; assay: Treatment of herpes labialis by squaric acid dibutyl ester (thirty patients, subject diaries); type: in vivo, human; details: sensitizing dose 2% SADBE in DMSO, then two treatments on lesions in the next two outbreaks
Experimental: Thirty patients are recruited meeting the following criteria:
In a screening interview, vital signs are recorded, and information is collected on any medications the patient is currently taking, previous and current treatments for cold sores, severity and duration of cold sores.
Upon entering the study, patients are sensitized to squaric acid dibutyl ester (SADBE) by dipping a cotton-tipped swab in a 2% solution of SADBE in DMSO and swabbing a 1 cm^2 area on the forearm. Participants are told then to wait at least 2 weeks for their first treatment.
Throughout the study, the participants are asked to maintain a subject diary, in which they record each day any symptoms they experience, including fever, swelling, pain, redness, itching, burning, the size of any lesions, and any medications taken.
After the 2-week period to allow development of sensitivity to SADBE, upon the beginning of his or her next outbreak (within 72 hours of the first signs of an outbreak), each participant is swabbed at the site of the herpes labialis lesion with a 0.5% solution of SADBE in DMSO.
Upon the next distinct outbreak at least 2 weeks after the previous treatment at visit 2, study diaries are collected. If the diary reflects redness, blistering, or burning greater than 0.5 cm beyond the clinical lesion with the previous SADBE treatment, the dosage of SADBE is decreased to 0.1%. […]

[5] = system: warts; details: intralesional injection together with antigens; differences not statistically significant; cited from earlier work
[6] = first treatment, 0.2% DNCB on lower lip
[7] = second treatment, 0.2% DNCB on lower lip
[8] = third treatment, 0.1% DNCB solution

With O=[N+]([O-])c1ccc(Cl)c([N+](=O)[O-])c1 [DNCB, 1-chloro-2,4-dinitrobenzene] the “severity and duration of subsequent outbreaks compared with before” value ([1]; 4 weeks after first treatment with 0.2% DNCB) was “much less severe and of much shorter duration than before”, the “erythema in the area of the cold sore” value ([1]; first treatment, 0.2% DNCB in acetone on lower lip, left on overnight) was “mild erythema” and the “further duration of erythema” value [1, 6] was 5 days. For the same compound, the “time over which erythema developed” value [1, 6] was 2 to 3 days, the “time to resolution of the treated cold sore” value [1, 6] was “about 7 days” and the time without outbreaks ([1]; following second DNCB treatment at the site of a lesion) was 6 months. The time without outbreaks ([1]; following third treatment (0.1% DNCB), to the present time) was 6 months, the “frequency of subsequent outbreaks” value ([1]; next 4 weeks after first treatment with 0.2% DNCB) was “approximately weekly” and the “duration of the treated outbreak” value [1, 7] was “about 7 days”. The “severity of the treated outbreak” value [1, 7] was “as severe or even slightly more severe than a typical outbreak”, the “inflammation and erythema with the application” value ([1]; second treatment, 0.2% DNCB on lower lip, about two months after the first) was “more severe than they had been with the first application” and the “DTH response at the cold sore” value [1, 8] was “moderate DTH response”. For the same compound, the “duration of the treated outbreak” value [1, 8] was “about 10 days”, the erythema on forearm ([2]; 0.1% DNCB solution) was “almost no erythema” and the erythema on forearm ([2]; 0.2% DNCB solution) was “mild but easily seen erythema”. For the same compound, the “rash on forearm after presensitizing application” value ([2]; 2% DNCB in acetone, first application, two spots on forearm) was “No rash developed”, the “duration of rash on forearm” value ([2]; 2% DNCB, second application two weeks after sensitizing dose) was 3 weeks and the “rash on forearm after second application” value ([2]; 2% DNCB, two weeks after sensitizing dose, different spots on forearm) was “very strong but localized rash”.
For CCCCOc1c(OCCCC)c(=O)c1=O [SADBE, squaric acid dibutyl ester], the “stimulation index of PBMC” value [3] was “increased after treatment”, the “duration of outbreaks compared with before treatment” value [4] was “last for less time” and the “number of outbreaks compared with before treatment” value [4] was “fewer outbreaks than before treatment”.
In the case of “GM-CSF: granulocyte monocyte colony stimulating factor, cytokine used as immune response enhancer”, the “fraction of patients responding to treatment compared with antigen alone” value [5] is listed as “larger fraction”.
For interferon alpha, the “fraction of patients responding to treatment compared with antigen alone” value [5] is listed as “larger fraction”.
